Source: patent publication US20100298141A1, “SUBSTITUTED PYRIDINE N-OXIDE HERBICIDES” (E. I. DU PONT DE NEMOURS AND COMPANY, priority 2007, published 2010)

Assays:
bermudagrass = assay: Test C pre-/postemergence test; type: in vivo, Cynodon dactylon; settings: for Plant response rating, Bermudagrass: 31 g ai/ha
How it was run: (§1)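 Seeds were planted and treated preemergence with test chemical in a non-phytotoxic solvent mixture containing surfactant. Postemergence applications of the same formulation went onto plants 2 to 18 cm tall (1- to 4-leaf stage). A dash marks no test result.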

wheat [1] = assay: Test C pre-/postemergence test; type: in vivo, Triticum aestivum; settings: for Plant response rating, Wheat: 31 g ai/ha, scale 0 to 100 (0 no effect, 100 complete control)
How it was run: as §1

pigweed = assay: Test C pre-/postemergence test; type: in vivo, Amaranthus retroflexus; settings: for Plant response rating, Pigweed: 31 g ai/ha, scale 0 to 100 (0 no effect, 100 complete control)
How it was run: as §1

[2] = tested on: common (oilseed) sunflower; assay: Test C pre-/postemergence test; type: in vivo, Helianthus annuus
How it was run: as §1

umbrella sedge = assay: Test C flooded paddy test; type: in vivo, Cyperus difformis; settings: Flood
How it was run: (§2)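 Visual injury ratings against untreated controls, taken 13 to 15 days after compound was added to paddy water standing 3 cm above the soil.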

Italian ryegrass = assay: Test C pre-/postemergence test; type: in vivo, Lolium multiflorum; settings: for Plant response rating, Ryegrass, Italian: 31 g ai/ha, scale 0 to 100 (0 no effect, 100 complete control)
How it was run: as §1

yellow nutsedge = assay: Test C pre-/postemergence test; type: in vivo, Cyperus esculentus; settings: for Plant response rating, Nutsedge, Yellow: 31 g ai/ha, scale 0 to 100 (0 no effect, 100 complete control)
How it was run: as §1

crabgrass = assay: Test A pre-/postemergence greenhouse test; type: in vivo, Digitaria sanguinalis; settings: for Plant response rating, Crabgrass, Large: 0 to 100 scale where 0 is no effect and 100 is complete control; for Crabgrass, Large plant response rating: 0 to 100 scale
How it was run: (§3)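 Visual injury ratings against untreated controls, taken roughly ten days after treatment in greenhouse. Plants were sprayed postemergence at one- to two-leaf stage (2–10 cm tall); at the same time, seeded loam/sand soil received a directed preemergence spray. Formulation: non-phytotoxic solvent mixture with surfactant.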

soybean = assay: Test C pre-/postemergence test; type: in vivo, Glycine max; settings: for Plant response rating, Soybean: 31 g ai/ha, scale 0 to 100 (0 no effect, 100 complete control)
How it was run: as §1

catchweed bedstraw = assay: Test C pre-/postemergence test; type: in vivo, Galium aparine; settings: for Plant response rating, Galium: 31 g ai/ha, scale 0 to 100 (0 no effect, 100 complete control)
How it was run: as §1

Goosegrass = assay: Test C pre-/postemergence test; type: in vivo, Eleusin indica; settings: for Plant response rating, Goosegrass: 31 g ai/ha, scale 0 to 100 (0 no effect, 100 complete control)
How it was run: as §1

giant foxtail = assay: Test A pre-/postemergence greenhouse test; type: in vivo, Setaria faberi; settings: for Plant response rating, Foxtail, Giant: 0 to 100 scale where 0 is no effect and 100 is complete control; for Foxtail, Giant plant response rating: 0 to 100 scale
How it was run: as §3

barnyardgrass = assay: Test C flooded paddy test; type: in vivo, Echinochloa crus-galli; settings: Flood
How it was run: as §2

corn = assay: Test A pre-/postemergence greenhouse test; type: in vivo, Zea mays; settings: for Plant response rating, Corn: 0 to 100 scale where 0 is no effect and 100 is complete control; for Corn plant response rating: 0 to 100 scale
How it was run: as §3

morningglory [3] = assay: Test C pre-/postemergence test; type: in vivo, Ipomoea coccinea; settings: for Plant response rating, Morningglory: 31 g ai/ha, scale 0 to 100 (0 no effect, 100 complete control)
How it was run: as §1

morningglory [4] = assay: Test A pre-/postemergence greenhouse test; type: in vivo, Ipomoea spp.; settings: for Plant response rating, Morningglory: 0 to 100 scale where 0 is no effect and 100 is complete control; for Morningglory plant response rating: 0 to 100 scale
How it was run: as §3

wheat [5] = assay: Test A pre-/postemergence greenhouse test; type: in vivo, Triticum aestivum; settings: for Plant response rating, Wheat: 0 to 100 scale where 0 is no effect and 100 is complete control; for Wheat plant response rating: 0 to 100 scale
How it was run: as §3

[6] = 62 g ai/ha, Preemergence, scale 0 to 100 (0 no effect, 100 complete control)
[7] = 125 g ai/ha, preemergence, scale 0 (no effect) to 100 (complete control)
[8] = Preemergence, scale 0 to 100 (0 no effect, 100 complete control)
[9] = preemergence, 250 g ai/ha, scale 0 (no effect) to 100 (complete control)
[10] = 62 g ai/ha, Preemergence, scale 0 to 100
[11] = 62 g ai/ha, scale 0 to 100 (0 no effect, 100 complete control)
[12] = 250 g ai/ha, scale 0 to 100, 0 no effect, 100 complete control, 13 to 15 days
[13] = Postemergence, 500 g ai/ha, 0 is no effect, 100 is complete control
[14] = Preemergence, 125 g ai/ha, 0 no effect, 100 complete control
[15] = Preemergence, 500 g ai/ha, 0 no effect, 100 complete control

Structure (SMILES): CCc1cc[n+]([O-])c([S+]([O-])Cc2c(C(F)(F)F)nn(C)c2OC(F)F)c1 (centres unmarked) [Compound 101]
- Bermudagrass plant response rating (bermudagrass; [6]): 85
- Bermudagrass plant response rating (bermudagrass; [7]): 100
- Plant response rating, Bermudagrass (bermudagrass; [8]): 55
- Bermudagrass plant response rating (bermudagrass; [9]): 100
- Wheat plant response rating (wheat [1]; [10]): 65
- Wheat plant response rating (wheat [1]; [7]): 85
- Plant response rating, Wheat (wheat [1]; Preemergence): 50
- Wheat plant response rating (wheat [1]; [9]): 95
- Pigweed plant response rating (pigweed; [10]): 50
- Pigweed plant response rating (pigweed; [7]): 95
- Plant response rating, Pigweed (pigweed; Preemergence): 50
- Pigweed plant response rating (pigweed; [9]): 98
- Sunflower plant response rating [2, 10]: 0
- Sunflower plant response rating [2, 7]: 5
- Plant response rating, Sunflower ([2]; Preemergence, 31 g ai/ha, scale 0 to 100 (0 no effect, 100 complete control)): 0
- Sunflower plant response rating [2, 9]: 60
- Plant response rating, Sedge, Umbrella (umbrella sedge; [11]): 0
- Plant response rating, Sedge, Umbrella (umbrella sedge; [12]): 90
- Ryegrass, Italian plant response rating (Italian ryegrass; [7]): 0
- Plant response rating, Ryegrass, Italian (Italian ryegrass; Preemergence): 0
- Ryegrass, Italian plant response rating (Italian ryegrass; [9]): 60
- Nutsedge, Yellow plant response rating (yellow nutsedge; [10]): 20
- Nutsedge, Yellow plant response rating (yellow nutsedge; [7]): 60
- Plant response rating, Nutsedge, Yellow (yellow nutsedge; Preemergence): 0
- Nutsedge, Yellow plant response rating (yellow nutsedge; [9]): 100
- Plant response rating, Crabgrass, Large (crabgrass; Postemergence, 125 g ai/ha): 60
- Crabgrass, Large plant response rating (crabgrass; [13]): 90
- Crabgrass, Large plant response rating (crabgrass; [14]): 90
- Crabgrass, Large plant response rating (crabgrass; [15]): 100
- Soybean plant response rating (soybean; [10]): 60
- Soybean plant response rating (soybean; [7]): 75
- Plant response rating, Soybean (soybean; Preemergence): 0
- Soybean plant response rating (soybean; [9]): 85
- Galium plant response rating (catchweed bedstraw; [10]): 50
- Galium plant response rating (catchweed bedstraw; [7]): 98
- Plant response rating, Galium (catchweed bedstraw; Preemergence): 0
- Galium plant response rating (catchweed bedstraw; [9]): 100
- Goosegrass plant response rating (Goosegrass; [10]): 85
- Goosegrass plant response rating (Goosegrass; [7]): 100
- Plant response rating, Goosegrass (Goosegrass; Preemergence): 80
- Goosegrass plant response rating (Goosegrass; [9]): 100
- Plant response rating, Foxtail, Giant (giant foxtail; Postemergence, 125 g ai/ha): 80
- Foxtail, Giant plant response rating (giant foxtail; [13]): 90
- Foxtail, Giant plant response rating (giant foxtail; [14]): 100
- Foxtail, Giant plant response rating (giant foxtail; [15]): 100
- Plant response rating, Barnyardgrass (barnyardgrass; [11]): 0
- Plant response rating, Barnyardgrass (barnyardgrass; [12]): 70
- Plant response rating, Corn (corn; Postemergence, 125 g ai/ha): 60
- Corn plant response rating (corn; [13]): 70
- Corn plant response rating (corn; [14]): 50
- Corn plant response rating (corn; [15]): 90
- Morningglory plant response rating (morningglory [3]; [10]): 60
- Morningglory plant response rating (morningglory [3]; [7]): 100
- Plant response rating, Morningglory (morningglory [3]; Preemergence): 20
- Morningglory plant response rating (morningglory [3]; [9]): 100
- Plant response rating, Morningglory (morningglory [4]; Postemergence, 125 g ai/ha): 70
- Morningglory plant response rating (morningglory [4]; [13]): 100
- Morningglory plant response rating (morningglory [4]; [14]): 80
- Morningglory plant response rating (morningglory [4]; [15]): 100
- Plant response rating, Wheat (wheat [5]; Postemergence, 125 g ai/ha): 50
- Wheat plant response rating (wheat [5]; [13]): 60
- Wheat plant response rating (wheat [5]; [14]): 70
- Wheat plant response rating (wheat [5]; [15]): 100

Structure (SMILES): CCc1cc[n+]([O-])c(S(=O)(=O)Cc2c(C(F)(F)F)nn(C)c2OC(F)F)c1 [Compound 102]
- Bermudagrass plant response rating (bermudagrass; [6]): 85
- Bermudagrass plant response rating (bermudagrass; [7]): 100
- Plant response rating, Bermudagrass (bermudagrass; [8]): 85
- Bermudagrass plant response rating (bermudagrass; [9]): 100
- Wheat plant response rating (wheat [1]; [10]): 0
- Wheat plant response rating (wheat [1]; [7]): 40
- Plant response rating, Wheat (wheat [1]; Preemergence): 0
- Wheat plant response rating (wheat [1]; [9]): 90
- Pigweed plant response rating (pigweed; [10]): 95
- Pigweed plant response rating (pigweed; [7]): 100
- Plant response rating, Pigweed (pigweed; Preemergence): 60
- Pigweed plant response rating (pigweed; [9]): 100
- Sunflower plant response rating [2, 10]: 0
- Sunflower plant response rating [2, 7]: 60
- Sunflower plant response rating [2, 9]: 80
- Plant response rating, Sedge, Umbrella (umbrella sedge; [11]): 0
- Plant response rating, Sedge, Umbrella (umbrella sedge; [12]): 70
- Ryegrass, Italian plant response rating (Italian ryegrass; [10]): 0
- Ryegrass, Italian plant response rating (Italian ryegrass; [7]): 0
- Plant response rating, Ryegrass, Italian (Italian ryegrass; Preemergence): 0
- Ryegrass, Italian plant response rating (Italian ryegrass; [9]): 20
- Nutsedge, Yellow plant response rating (yellow nutsedge; [10]): 50
- Nutsedge, Yellow plant response rating (yellow nutsedge; [7]): 50
- Plant response rating, Nutsedge, Yellow (yellow nutsedge; Preemergence): 0
- Nutsedge, Yellow plant response rating (yellow nutsedge; [9]): 85
- Plant response rating, Crabgrass, Large (crabgrass; Postemergence, 125 g ai/ha): 60
- Crabgrass, Large plant response rating (crabgrass; [13]): 90
- Crabgrass, Large plant response rating (crabgrass; [14]): 90
- Crabgrass, Large plant response rating (crabgrass; [15]): 90
- Soybean plant response rating (soybean; [7]): 65
- Plant response rating, Soybean (soybean; Preemergence): 50
- Soybean plant response rating (soybean; [9]): 80
- Galium plant response rating (catchweed bedstraw; [10]): 95
- Galium plant response rating (catchweed bedstraw; [7]): 100
- Plant response rating, Galium (catchweed bedstraw; Preemergence): 30
- Galium plant response rating (catchweed bedstraw; [9]): 100
- Goosegrass plant response rating (Goosegrass; [10]): 98
- Goosegrass plant response rating (Goosegrass; [7]): 100
- Plant response rating, Goosegrass (Goosegrass; Preemergence): 85
- Goosegrass plant response rating (Goosegrass; [9]): 100
- Plant response rating, Foxtail, Giant (giant foxtail; Postemergence, 125 g ai/ha): 80
- Foxtail, Giant plant response rating (giant foxtail; [13]): 90
- Foxtail, Giant plant response rating (giant foxtail; [14]): 90
- Foxtail, Giant plant response rating (giant foxtail; [15]): 100
- Plant response rating, Barnyardgrass (barnyardgrass; [11]): 0
- Plant response rating, Barnyardgrass (barnyardgrass; [12]): 0
- Plant response rating, Corn (corn; Postemergence, 125 g ai/ha): 40
- Corn plant response rating (corn; [13]): 50
- Corn plant response rating (corn; [14]): 0
- Corn plant response rating (corn; [15]): 0
- Morningglory plant response rating (morningglory [3]; [10]): 85
- Morningglory plant response rating (morningglory [3]; [7]): 100
- Plant response rating, Morningglory (morningglory [3]; Preemergence): 65
- Morningglory plant response rating (morningglory [3]; [9]): 100
- Plant response rating, Morningglory (morningglory [4]; Postemergence, 125 g ai/ha): 50
- Morningglory plant response rating (morningglory [4]; [13]): 100
- Morningglory plant response rating (morningglory [4]; [14]): 100
- Morningglory plant response rating (morningglory [4]; [15]): 100
- Plant response rating, Wheat (wheat [5]; Postemergence, 125 g ai/ha): 50
- Wheat plant response rating (wheat [5]; [13]): 60
- Wheat plant response rating (wheat [5]; [14]): 50
- Wheat plant response rating (wheat [5]; [15]): 100
